The values that follow come from patent US6509344B1, “Indenoisoquinolines as antineoplastic agents” (The United States of America as represented by the …, priority 1998, dated 2003).

The target in one series is T1, topoisomerase I (Homo sapiens, UniProt P11387).
T1 sequence (P11387 1-765): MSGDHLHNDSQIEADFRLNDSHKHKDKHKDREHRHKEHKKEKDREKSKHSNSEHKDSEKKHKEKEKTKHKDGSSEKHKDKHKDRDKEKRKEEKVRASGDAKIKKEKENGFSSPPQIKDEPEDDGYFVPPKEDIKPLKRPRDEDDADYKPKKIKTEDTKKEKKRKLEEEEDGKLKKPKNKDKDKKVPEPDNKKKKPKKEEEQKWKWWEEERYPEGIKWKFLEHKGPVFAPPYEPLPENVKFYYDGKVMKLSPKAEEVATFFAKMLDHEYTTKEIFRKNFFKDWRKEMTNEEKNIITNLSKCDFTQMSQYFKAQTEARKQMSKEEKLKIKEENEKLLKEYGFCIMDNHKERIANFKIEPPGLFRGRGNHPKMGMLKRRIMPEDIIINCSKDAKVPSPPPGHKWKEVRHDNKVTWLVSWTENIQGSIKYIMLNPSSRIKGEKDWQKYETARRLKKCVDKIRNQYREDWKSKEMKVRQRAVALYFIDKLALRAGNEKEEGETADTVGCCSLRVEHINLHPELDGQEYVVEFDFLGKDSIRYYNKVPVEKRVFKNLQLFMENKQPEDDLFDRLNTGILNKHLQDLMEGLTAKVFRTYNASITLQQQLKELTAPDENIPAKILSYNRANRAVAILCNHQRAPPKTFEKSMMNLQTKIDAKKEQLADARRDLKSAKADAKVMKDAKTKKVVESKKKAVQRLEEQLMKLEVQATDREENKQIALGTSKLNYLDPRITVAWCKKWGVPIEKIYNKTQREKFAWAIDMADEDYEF
Briefly: Topoisomerase I-mediated DNA cleavage assay (3'-end-labeled 161 bp pBluescript SK(-) fragment). The note with it: relative to the activity of 1 μM camptothecin. The format is biochemical. As to the method: Topoisomerase I-Mediated DNA Cleavage Reactions Using 3′-End-labeled 161 BP Plasmid DNA
The 161 bp fragment from pBluescript SK(−) phagemid DNA (Stratagene, La Jolla, Calif.) was cleaved with the restriction endonuclease Pvu II and Hind III (New England Biolabs, Beverly, Mass.) in supplied NE buffer 2 (10 μL reactions) for 1 h at 37° C., separated by electrophoresis in a 1% agarose gel made in 1×TBE buffer. The 161 bp fragment was eluted from the gel slice (centrilutor by Amicon) and concentrated in a centricon 50 centrifugal concentrator (Amicon, Beverly, Mass.). Approximately 200 ng of the fragment was 3′-end-labeled at the Hind III site by fill-in reaction with [alpha-^32P]-dCTP and 0.5 mM dATP, dGTP, and dTTP, in React 2 buffer (50 mM Tris-HCl, pH 8.0, […], 50 mM NaCl) with 0.5 units of DNA polymerase I (Klenow fragment). Labeling reactions were followed by phenol-chloroform extraction and ethanol precipitation. The resulting 161 bp 3′-endlabeled DNA fragment was resuspended in water. Aliquots (approximately 50,000 dpm/reaction) were incubated with topoisomerase I at 30° C. for 15 min in the presence of the indicated drug. Reactions were terminated by adding 0.5% SDS. After ethanol precipitation, the samples were resuspended in loading buffer (80% formamide, 10 mM sodium hydroxide, 1 mM sodium EDTA, 0.1% xylene cyanol, and 0.1% bromophenol blue, pH 8.0), and separated in a denaturing gel (16% polyacrylamide, 7 M urea) run at 51° C. The gel was dried and visualized by using a Phosphoimager and ImageQuant software (Molecular Dynamics, Sunnyvale, Calif.).

The subject of another series is UACC-62. Nature of the series: NCI human cancer cell line screen (COMPARE screening), Melanoma UACC-62. The format is cell-based. As to conditions: Homo sapiens; UACC-62; concentration causing 50% growth inhibition; read-out: Cytotoxicity (G150 in μM) Melanoma UACC-62. The source says:
(§1) Considering the diversity of cancer in terms of cell type, morphology, growth rate and other cellular characteristics, the U.S. National Cancer Institute (NCI) has developed a “disease-oriented” approach to anticancer activity screening (M. R. Boyd, in “Principle of Practice of Oncology” […]. Rosenberg (Eds.) Vol. 3, PPO Update, No. 10, 1989). This in vitro prescreening system is based on the measurement of anticancer cytotoxicity against human cancer cell line panels consisting of approximately 60 cell lines of major human cancers (including leukemia and slower growing tumor cells such as lung, colon, breast, skin, kidney, etc.) and is referred hereinafter as “COMPARE” screening. An important advantage of the new in vitro screening panels is the opportunity to facilitate identification of compounds that are selectively more cytotoxic to cells of certain types of cancers, thus increasing the ability to select compounds for further study with respect to specific diseases. The indenoisoquinolines were examined for antiproliferative activity against the human cancer cell lines in the National Cancer Institute screen (COMPARE screening), in which the activity of each compound was evaluated with approximately […] different cancer cell lines of diverse tumor origins.

The subject of series [1] is approximately 55 different cancer cell lines of diverse tumor origins. Briefly: NCI screen mean graph midpoint over all cell lines tested. It counts as cell-based, human. As to conditions: for IC50: Homo sapiens, average GI50 for all cell lines tested (approximately 55), values outside test range taken as 10^-8 or 10^-4 molar, read-out: MGM (mean graph midpoint); for cytotoxicity (MGM) relative to lead compound 1: comparison in words.
From the text: as §1

The subject of the next series is OVCAR-3. Briefly: NCI human cancer cell line screen (COMPARE screening), Ovarian OVCAR-3. The format is cell-based. The note with it: Homo sapiens; OVCAR-3; concentration causing 50% growth inhibition; read-out: Cytotoxicity (G150 in μM) Ovarian OVCAR-3.
From the text: as §1

A further series has as its system SN12C. Nature of the series: NCI human cancer cell line screen (COMPARE screening), Renal SN12C. The format is cell-based. The note with it: Homo sapiens; SN12C; concentration causing 50% growth inhibition; read-out: Cytotoxicity (G150 in μM) Renal SN12C.
From the text: as §1

The test system of a further series is MDA-MB-435. Briefly: NCI human cancer cell line screen (COMPARE screening), Breast MDA-MB-435. The format is cell-based. The note with it: Homo sapiens; MDA-MB-435; concentration causing 50% growth inhibition; read-out: Cytotoxicity (G150 in μM) Breast MDA-MB-435.
From the text: as §1

The next series concerns DU-145. Nature of the series: NCI human cancer cell line screen (COMPARE screening), Prostate DU-145. The format is cell-based. As to conditions: Homo sapiens; DU-145; concentration causing 50% growth inhibition; read-out: Cytotoxicity (G150 in μM) Prostate DU-145.
From the text: as §1

The test system of another series is SF-539. Briefly: NCI human cancer cell line screen (COMPARE screening), CNS SF-539. The format is cell-based. The note with it: Homo sapiens; SF-539; concentration causing 50% growth inhibition; read-out: Cytotoxicity (G150 in μM) CNS SF-539.
From the text: as §1

Another series relates to HCT-116. Nature of the series: NCI human cancer cell line screen (COMPARE screening), Colon HCT-116. It counts as cell-based. The note with it: Homo sapiens; HCT-116; concentration causing 50% growth inhibition; read-out: Cytotoxicity (G150 in μM) Colon HCT-116.
From the text: as §1

The subject of another series is HOP-62. Briefly: NCI human cancer cell line screen (COMPARE screening), Lung HOP-62. It counts as cell-based. As to conditions: Homo sapiens; HOP-62; concentration causing 50% growth inhibition; read-out: Cytotoxicity (G150 in μM) Lung HOP-62.
From the text: as §1

For the compound `CCn1c2c(c3ccccc3c1=O)C(=O)c1ccccc1-2` [Compound 3, 6-Ethyl-5,6-dihydro-5,11-diketo-11H-indeno[1,2-c]isoquinoline], the “Top 1 Cleavage” value on topoisomerase I came to 0.
On to `CCCn1c2c(c3ccccc3c1=O)C(=O)c1ccccc1-2` [Compound 4, 5,6-Dihydro-5,11-diketo-6-propyl-11H-indeno[1,2-c]isoquinoline], for which the “Top 1 Cleavage” value on topoisomerase I turned out to be 0.
Turning to `COC(=O)Cn1c2c(c3ccccc3c1=O)C(=O)c1ccccc1-2` [Compound 6, 5,6-Dihydro-5,11-diketo-6-(methoxycarbonylmethyl)-11H-indeno[1,2-c]isoquinoline], the IC50 in the series on UACC-62 is greater than 100 µM; in series [1], 81 µM; in the series on OVCAR-3, greater than 100 µM; with SN12C, greater than 100 µM; in the series with MDA-MB-435 it was greater than 100 µM; in the series with DU-145, greater than 100 µM. The IC50 with SF-539 is greater than 100 µM. Also, at topoisomerase I, the “Top 1 Cleavage” value was determined as 0.
In the case of `Cn1c2c(c3ccccc3c1=O)C(=O)c1cc3c(cc1-2)OCO3` [Compound 13a, 5,6-Dihydro-5,11-diketo-6-methyl-8,9-methylenedioxy-11H-indeno[1,2-c]isoquinoline], the IC50 in the series on UACC-62 was greater than 100 µM; in series [1] it was 45 µM; in the series with HCT-116 it was 54 µM; in the series with OVCAR-3, greater than 100 µM; in the series with SN12C, greater than 100 µM; in the series with DU-145 it was greater than 100 µM. Besides, in the series on HOP-62, the IC50 was determined as 22 µM. Also, the “Top 1 Cleavage” value at topoisomerase I is “+ (those compounds having between 20% and 50% of the activity of 1 μM camptothecin)”.
Regarding `CCCCn1c2c(c3cc(OC)c(OC)cc3c1=O)C(=O)c1cc3c(cc1-2)OCO3` [Compound 13d, 6-(1-Butyl)-5,6-dihydro-5,11-diketo-2,3-dimethoxy-8,9-methylenedioxy11H-indeno[1,2-c]isoquinoline], the IC50 in the series with UACC-62 was 21 µM; in [1] it was 42 µM; with HCT-116 it was 45 µM; in the series with OVCAR-3, 78 µM; in the series with MDA-MB-435, greater than 100 µM; in the series on DU-145, 16 µM. Further, the IC50 in the series on HOP-62 is 16 µM. Besides, the “Top 1 Cleavage” value on topoisomerase I was “+ (those compounds having between 20% and 50% of the activity of 1 μM camptothecin)”.
Regarding `COc1cc2c3c(n(Cc4ccccc4)c(=O)c2cc1OC)-c1cc2c(cc1C3=O)OCO2` [Compound 13e, 6-Benzyl-5,6-dihydro-5,11-diketo 2,3-dimethoxy-8,9-methylenedioxy-11H-indeno[1,2-c]isoquinoline], the IC50 is 50 µM in the series with UACC-62; 42 µM in [1]; greater than 100 µM in the series with HCT-116; greater than 100 µM in the series on OVCAR-3; greater than 100 µM in the series with MDA-MB-435; 4 µM with DU-145. Further, in the series with HOP-62, the IC50 was found to be 12 µM. Also, the “cytotoxicity (MGM) relative to lead compound 1” value in series [1] is “lower MGM than the lead compound 1”. Besides, the “Top 1 Cleavage” value at topoisomerase I is “± (those compounds having less than 20% of the activity of 1 μM camptothecin)”.
As to `COc1cc2c(c(OC)c1OC)C(=O)c1c-2n(C)c(=O)c2ccccc12` [Compound 13j, 5,6-Dihydro-5,11-diketo-6-methyl-8,9,10-trimethoxy-11H-indeno[1,2-c]isoquinoline], the IC50 is 78 µM in [1]; greater than 100 µM with OVCAR-3; greater than 100 µM with SN12C; greater than 100 µM in the series on DU-145; greater than 100 µM in the series on SF-539; 24 µM in the series with HOP-62. The “Top 1 Cleavage” value at topoisomerase I was 0.
For `COc1cc2c3c(n(C)c(=O)c2cc1OC)-c1cc(OC)c(OS(C)(=O)=O)cc1C3=O` [Compound 23, 5,6-Dihydro-5,11-diketo-2,3,8-trimethoxy-6-methyl-9[(methylsulfonyl)oxy]-(11H)indeno[1,2-c]isoquinoline], the “Top 1 Cleavage” value on topoisomerase I is on record as “± (those compounds having less than 20% of the activity of 1 μM camptothecin)”.
As to `CCN1C(=O)c2cc(OC)c(OC)cc2[C@@H]2[C@H]1c1cc3c(cc1[C@@H]2O)OCO3` [Compound 24, 6-Ethyl-5,6,12α,13α-tetrahydro-11β-hydroxy-2,3-dimethoxy-8,9-(methylenedioxy)-5-oxo-11H-indeno[1,2-c]isoquinoline], the IC50 was 100 µM in [1]; greater than 100 µM with HCT-116; greater than 100 µM in the series with OVCAR-3; greater than 100 µM in the series with SN12C; greater than 100 µM with MDA-MB-435; greater than 100 µM in the series with DU-145. For the same compound, the IC50 with SF-539 and in the series with HOP-62 was greater than 100 µM each time. For the same compound, on topoisomerase I, the “Top 1 Cleavage” value is recorded as 0.
In the case of `CCN1Cc2cc(OC)c(OC)cc2[C@@H]2[C@H]1c1cc3c(cc1[C@@H]2O)OCO3` [Compound 25, 6-Ethyl-5,6,12α,13α-tetrahydro-11β-hydroxy-2,3-dimethoxy-8,9-(methylenedioxy)-11H-indeno[1,2-c]isoquinoline], the IC50 in series [1] worked out at 31 µM; in the series with HCT-116 it was 35 µM; in the series with OVCAR-3, 24 µM; in the series on SN12C, 26 µM; with MDA-MB-435, 25 µM; with DU-145, 41 µM. Further, the IC50 in the series on SF-539 came to 50 µM; in the series with HOP-62, 30 µM. Also, at topoisomerase I, the “Top 1 Cleavage” value is listed as 0.
As to `CC[n+]1cc2cc(OC)c(OC)cc2c2c1-c1cc3c(cc1C2)OCO3` [Compound 27, 6-Ethyl-2,3-dimethoxy-8,9-(methylenedioxy)-11H-indeno[1,2-c]isoquinolinium Chloride], the IC50 in series [1] is 13 µM; with HCT-116, 13 µM; in the series with OVCAR-3 it was 1.9 µM; in the series with SN12C, 2.7 µM; in the series with MDA-MB-435, 14 µM; with DU-145 it was 58 µM. The results for the IC50 in the series on SF-539 and in the series on HOP-62 were 5.6 µM and 22 µM, respectively. The “cytotoxicity (MGM) relative to lead compound 1” value in series [1] is “lower MGM than the lead compound 1”. In addition, on topoisomerase I, the “Top 1 Cleavage” value is “++ (those compounds having greater than 50% of the activity of 1 μM camptothecin)”.
